From article PMC11251039, “Harnessing cholesterol uptake of malaria parasites for therapeutic applications” (EMBO Molecular Medicine, 2024)
Several values for one entry are separate records, joined by “and”; a condition that tells them apart may be missing. Equal entries are not always repeated. Where two headings read alike, the source gives them in different places.

Experiments:
[1] = tested on: asexual P. falciparum 3D7 wild-type parasites; assay: P. falciparum asexual growth inhibition assay (SYBR Safe DNA replication); format: cell-based, Plasmodium falciparum; set-up: Figure 5B dose-response source data (growth, replicate values): unit not given here; conditions: for IC50: 72 h, read-out: IC50, P. falciparum asexual growth inhibition; for Figure 5B dose-response source data (growth, replicate values): individual replicates
Method: P. falciparum asexual parasite assays commenced with ring-stage parasites at 1% parasitaemia and 1% haematocrit. 200 nM chloroquine (Sigma C6628) or artesunate (Sigma A3731) was used as a no-growth control. DNA replication (indicating growth) was measured at the specified time using SYBR Safe DNA Gel Stain (Invitrogen 33102) and a fluorescence microplate reader (Smilkstein et al, [2004]; Spry et al, [2013]). […]
Growth and Viability Inhibition Assays:
Plasmodium falciparum Growth Inhibition Assays:
P. falciparum parasites were maintained under routine culture conditions in red blood cells and RPMI 1640-Hepes with Glutamax, supplemented with 10 mM D-glucose, 480 μM hypoxanthine, 20 μg/mL gentamicin, 0.375% (w/v) AlbuMAXTM II (Thermo Fisher 11021029), and 2.5% v/v heat-inactivated human serum (17). Cultures were maintained at 37 °C […]
wildtype parasites except for the ring stage survival assay, as specified. Cultures were synchronised with 5% w/v D-sorbitol (18).
Growth inhibition was investigated according to methods described by Smilkstein et al. (19) with modifications by Spry et al. (20). Compounds or solvent controls (DMSO, ethanol, or ethyl acetate) were serially diluted 2-fold across flat-bottom 96-well plates. Culture media without compound was used as a negative control. 200 nM chloroquine (Sigma C6628) or artesunate (Sigma A3731) was used as a positive control to determine background fluorescence. The parasitaemia of a culture containing predominantly ring stage parasites was counted by Giemsa smear. The parasitaemia was adjusted to 1% by addition of fresh uRBCs and added to the plate at a final haematocrit of 1%, with 200 µL per well. The plates were incubated at 37 °C under humid microaerophilic conditions. After 24, 48, or 72 hours, the plates were transferred to a -18 °C freezer to stop the assay and lyse cells. Plates were thawed and lysate was mixed 1:1 with SYBR Safe DNA Gel Stain (Invitrogen 33102) (final concentration 1/10,000) diluted in lysis buffer (20 mM TRIS, 5 mM EDTA, 0.008% w/v Saponin, 0.08% w/v Triton-X 100, pH 7.5). Fluorescence was detected at 490 nm excitation/ 520 nm emission on a FLUOstar Optima fluorescence plate reader (BMG Labtech).

[2] = tested on: human embryonic kidney cells (HEK293); assay: Human embryonic kidney cell viability assay (MTT); format: cell-based; conditions: for IC50: 96 h, HEK293, read-out: IC50, human embryonic kidney cell inhibition (viability); for Dose-response data points (Figure 5C): replicate data points
Method: HEK293 cell viability assays commenced with 5000 cells per well. 10 µg/mL cycloheximide was used as a no-growth control. Metabolic capacity (indicating viability) was measured in an absorbance microplate reader after incubation with 0.45 mg/mL methylthiazolyldiphenyl-tetrazolium bromide (MTT; Sigma M2128) for 2 h followed by crystal solubilisation in SDS. […]
Human Embryonic Kidney Cell Viability Assays:
Human Embryonic Kidney Cell (HEK293) culture:
The HEK293 cell line was maintained under routine culture conditions in DMEM containing 3.7 g/L NaHCO3 supplemented with 10% FBS, 200 μM glutamine, 100 units/mL penicillin, and 100 μg/mL streptomycin at 37 °C in a humidified 5% CO2 incubator.
Cells were detached from a flask using 0.25% Trypsin with 0.2 g/L EDTA (Sigma T4049) and washed with culture media containing no phenol red. Cells were incubated with a serial dilution of each compound, or media/DMSO alone. The protein synthesis inhibitor cycloheximide (Sigma 01810) at 10 µg/mL was used as a positive control to determine background absorbance. 5,000 cells were seeded in each well. After 96 hours, 0.45 mg/mL methylthiazolyldiphenyl-tetrazolium bromide (MTT; Sigma M2128) was added and incubated for a further two hours, before mixing 1.1:1 with 10% w/v sodium dodecyl sulfate (SDS) to solubilise crystals and freezing the plate at -18 °C to stop the assay. […]

[3] = Plasmodium falciparum, 3D7, 72 h

Compound	IC50 [1] [µM]	Figure 5B dose-response source data (growth, replicate values) ([1]; Concentration 0.039063 uM)	Figure 5B dose-response source data (growth, replicate values) ([1]; Concentration 0.078125 uM)	Figure 5B dose-response source data (growth, replicate values) ([1]; Concentration 0.15625 uM)	Figure 5B dose-response source data (growth, replicate values) ([1]; Concentration 0.3125 uM)	Figure 5B dose-response source data (growth, replicate values) ([1]; Concentration 0.625 uM)	Figure 5B dose-response source data (growth, replicate values) ([1]; Concentration 1.25 uM)	Figure 5B dose-response source data (growth, replicate values) ([1]; Concentration 1.5625 uM)	Figure 5B dose-response source data (growth, replicate values) ([1]; Concentration 2.5 uM)	Figure 5B dose-response source data (growth, replicate values) ([1]; Concentration 3.125 uM)	Figure 5B dose-response source data (growth, replicate values) ([1]; Concentration 5 uM)	Figure 5B dose-response source data (growth, replicate values) ([1]; Concentration 6.25 uM)	Figure 5B dose-response source data (growth, replicate values) ([1]; Concentration 10 uM)	Figure 5B dose-response source data (growth, replicate values) ([1]; Concentration 12.5 uM)	Figure 5B dose-response source data (growth, replicate values) ([1]; Concentration 25 uM)	IC50 [1, 3] [µM]	IC50 ([2]; Homo sapiens) [µM]	Dose-response data points (Figure 5C) ([2]; 3.125000 μM)	Dose-response data points (Figure 5C) ([2]; 6.250000 μM)	Dose-response data points (Figure 5C) ([2]; 12.500000 μM)	further results
CC(C)(C)OOC(C)(C)C [Di-tert-butyl peroxide, di-tert-butyl peroxide, reference compound]	> 25	85.18 and 102.4 and 102.7	74.12 and 92.74 and 101.2	95.05 and 90.78 and 92.5 and 91.43 and 92.81 and 96.62 and 92.25 and 92.33 and 93.69	87.88 and 89.77 and 89.55 and 85.58 and 96.69 and 99.28 and 97.57 and 87.06 and 96.72	89.02 and 90.9 and 80.19 and 84.44 and 92.83 and 101.4 and 93.27 and 93.75 and 89.82	89.1 and 88.53 and 87.02 and 94.06 and 87.75 and 98.34 and 95.66 and 89.13 and 92.05	96.44 and 101 and 94.23	90.99 and 88.19 and 94.1 and 84.35 and 90.32 and 96.8 and 92.38 and 90.3 and 90.14	98.75 and 99.8 and 93.33	88.2 and 86.72 and 93.06 and 89.82 and 70.14 and 95.75 and 93.09 and 90.02 and 87.03	99.66 and 102.1 and 96.08	83.27 and 83.85 and 83.43 and 96.65 and 93.69 and 94.13 and 91.37 and 89.09 and 89.4	105.9 and 89.05 and 98.44	103.6 and 101.6 and 94.82						Figure 5B dose-response source data (growth, replicate values) ([1]; Concentration 0.1953125 uM): 104.7 and 100.3 and 94.44; Figure 5B dose-response source data (growth, replicate values) ([1]; Concentration 0.390625 uM): 99.53 and 101.7 and 93.86; Figure 5B dose-response source data (growth, replicate values) ([1]; Concentration 0.78125 uM): 99.16 and 101.8 and 97.31; IC50 [2]: > 100 µM
CC(C)(C)OOCCO[C@H]1CC[C@H]2[C@@H]3CC=C4C[C@@H](O)CC[C@]4(C)[C@H]3CC[C@]12C [C-17-perox]	0.5															0.48	31.3				Fold difference in IC50 HEK293 compared to P. falciparum ([2]; 96 h HEK293 vs 72 h P. falciparum): ~ 60 fold
CC(C)(C)OOCCO[C@H]1CC[C@H]2[C@@H]3CC=C4C[C@@H](O)CC[C@]4(C)[C@H]3CC[C@]12C [BC86D]		101.2 and 93.9 and 88.17 and 67.71 and 70.53 and 73.82 and 95.83 and 90.15 and 93.44	97.22 and 94.27 and 90.34 and 67.69 and 67.82 and 69.83 and 95.38 and 88.24 and 94.29	96.36 and 93.34 and 87.86 and 61.44 and 62.01 and 63.2 and 95.83 and 94.74 and 95.36	73 and 78.58 and 67.15 and 39.54 and 44.2 and 46.55 and 91.73 and 92.12 and 93.7	35.28 and 38.38 and 34.74 and 19.93 and 23.01 and 29.36 and 61.25 and 65.6 and 67.6	21.76 and 22.71 and 19.11 and 8.627 and 13.04 and 18.09 and 18.17 and 19.23 and 20.29		14.75 and 15.93 and 13.24 and 1.608 and 6.601 and 8.38 and 7.495 and 10.61 and 8.324		10.45 and 16.02 and 6.128 and -6.852 and -3.181 and -0.1793 and 5.173 and 6.43 and 3.972		4.733 and -2.356 and 1.324 and -0.2487 and 0.35 and -1.359 and 1.305 and 0.4257 and 0.3494	2.181 and -0.01995 and -1.157	4.45 and 0.3217 and -1.979			115.5 and 95.86 and 88.3 and 98.59 and 112 and 99.93 and 104.6 and 105.3 and 96.8 and 121.6 and 126.6 and 132.2	96.33 and 95.87 and 97.03 and 100.5 and 103.4 and 96.23 and 94.82 and 98.4 and 99.62 and 111.9 and 133.1 and 110.9	82.46 and 90.77 and 77.92 and 80.03 and 95.9 and 97.58 and 94.64 and 94.52 and 89.57 and 87.62 and 85.62 and 86.13	Figure 5B dose-response source data (growth, replicate values) ([1]; Concentration 0.019532 uM): 105.3 and 96.53 and 86.36 and 94.74 and 88.38 and 91.4; Dose-response data points (Figure 5C) ([2]; 25.000000 μM): 69.58 and 78.66 and 69.32 and 83.79 and 87.18 and 91.53 and 75.15 and 72.67 and 65.58 and 76.71 and 79.77 and 75.18; Dose-response data points (Figure 5C) ([2]; 50.000000 μM): 3.07 and 5.347 and 9.422 and 2.15 and 5.359 and 78.86 and -3.535 and -3.352 and -3.7 and -3.023 and -3.058 and -2.513; Dose-response data points (Figure 5C) ([2]; 100.000000 μM): -1.036 and -1.804 and -2.143 and -2.292 and -2.356 and -1.995 and -3.811 and -3.706 and -3.888 and -2.988 and -3.04 and -3.163
C[C@]12CC[C@H](O)CC1=CC[C@@H]1[C@@H]2CC[C@]2(C)C(=O)CC[C@@H]12 [DHEA, Dehydroepiandrosterone]								105 and 100.9 and 101.2 (2×) and 104.8 and 107.1 and 104 and 104.2 and 97.24		99.54 and 98.59 and 99.35 and 103.6 and 96.02 and 105.9 and 103.9 and 101.1 and 100.2		94.64 and 99.33 and 101.7 and 100.2 (2×) and 103.5 and 102.7 and 100.1 and 101.2		97.83 and 97.77 and 98.63 and 101.4 and 104.7 and 102.2 and 102.3 and 100.6 and 97.67	97.33 and 98.84 and 99.51 and 104.1 and 102.5 and 109.8 and 97.3 and 98.4 and 101.2	150	88.5	108.5 and 113.8 and 102.3 and 90.3 and 90.17 and 89.76	115 and 79.4 and 102.8 and 86.08 and 90.81 and 85.1	83.96 and 112.7 and 100.9 and 95.11 and 92.95 and 84.24 and 113.9 and 109.3 and 94.8 and 88.3 and 83.73 and 81.43	Figure 5B dose-response source data (growth, replicate values) ([1]; Concentration 50 uM): 91.17 and 88.79 and 89.21 and 91.36 and 96.36 and 97.35 and 94.23 and 92.68 and 93.65; Figure 5B dose-response source data (growth, replicate values) ([1]; Concentration 100 uM): 80.03 and 78.97 and 77.22 and 68.91 and 88.77 and 89.83 and 76.17 and 73.25 and 71.62; Figure 5B dose-response source data (growth, replicate values) ([1]; Concentration 200 uM): 36.08 and 37.08 and 31 and 29.85 and 51.4 and 44.23 and 15.92 and 13.39 and 11.5; Figure 5B dose-response source data (growth, replicate values) ([1]; Concentration 400 uM): 0.02245 and -0.2944 and -1.594 and 1.899 and 4.652 and 1.525 and -5.885 and -7.232 and -8.092; Dose-response data points (Figure 5C) ([2]; 25.000000 μM): 74.02 and 110.4 and 109.9 and 89.17 and 79.81 and 87.49 and 124 and 119.6 and 106.3 and 78.12 and 83.41 and 71.52; Dose-response data points (Figure 5C) ([2]; 50.000000 μM): 65.27 and 101.5 and 98.29 and 73.76 and 69.18 and 75.02 and 111.3 and 62.75 and 93.36 and 87.06 and 86.25 and 84.64; Dose-response data points (Figure 5C) ([2]; 100.000000 μM): 28.83 and 48.06 and 53.97 and 38.87 and 26.11 and 38.89 and 29.34 and 31.58 and 34.33 and 61 and 65.6 and 64; Dose-response data points (Figure 5C) ([2]; 200.000000 μM): -0.4301 and 3.655 and 7.381 and -0.1582 and -0.5868 and -0.7801 and -3.647 and -3.757 and -3.702 and -0.3542 and 0.648 and 0.1847; Dose-response data points (Figure 5C) ([2]; 400.000000 μM): -1.929 and -2.654 and -2.355 and -0.05272 and -1.637 and -1.302 and -3.718 and -4.096 and -4.009 and -3.542 and -3.411 and -3.648
